Here are results for twelve molecules from patent publication US8309725B2 (priority 2007, dated 2012).

Read-outs that look alike come from different tables or passages of the source.

One test concerns male NMRI mice. The note with it: mouse, in vivo.
Another test deals with T1, κ receptor (Cavia porcellus, UniProt P41144).
T1 construct: sucrose solution (0.32 M) was added to five guinea pig brains and the mixture was homogenized; from tissue; host or cells: whole guinea pig brain membrane homogenate
T1 sequence (P41144 whole entry): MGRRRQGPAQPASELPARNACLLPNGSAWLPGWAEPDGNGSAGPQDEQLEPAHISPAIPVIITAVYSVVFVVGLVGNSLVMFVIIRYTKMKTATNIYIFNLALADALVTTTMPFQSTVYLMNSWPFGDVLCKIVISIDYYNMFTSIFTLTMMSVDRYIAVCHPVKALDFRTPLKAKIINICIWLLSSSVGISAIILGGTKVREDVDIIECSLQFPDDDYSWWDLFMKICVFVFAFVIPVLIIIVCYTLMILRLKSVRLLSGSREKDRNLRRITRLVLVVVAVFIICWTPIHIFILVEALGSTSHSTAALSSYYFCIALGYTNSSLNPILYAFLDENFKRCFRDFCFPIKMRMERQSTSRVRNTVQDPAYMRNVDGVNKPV
Kind of test: biochemical. Format: binding, guinea pig.

Turning to “2-(3,4-dichlorophenyl)-1-{(4aRS,8SR,8aSR)-8-[(3SR)-3-hydroxypyrrolidin-1-yl]perhydroquinoxalin-1-yl}ethan-1-one and 2-(3,4-dichlorophenyl)-1-{(4aRS,8SR,8aSR)-8-[(3RS)-3-hydroxypyrrolidin-1-yl]perhydroquinoxalin-1-yl}ethan-1-one [Example 2]”, the “reduction in the pain in the models of the centrally mediated types of pain” value in the test with male NMRI mice is given as “no significant reduction in the pain”. As for `COC(=O)CC(=O)N1CCN(C(=O)Cc2ccc(Cl)c(Cl)c2)[C@H]2[C@H]1CCC[C@@H]2N1CCCC1` (racemic) [Example 13, methyl 3-{(4aRS,8SR,8aRS)-1-[2-(3,4-dichlorophenyl)acetyl]-8-(pyrrolidin-1-yl)-perhydroquinoxalin-4-yl}-3-oxopropionate], the affinity on κ receptor, expressed as Ki, was 11 ± 5.6 nM. As to `CCCCN1CCN(C(=O)Cc2ccc(Cl)c(Cl)c2)[C@H]2[C@H]1CCC[C@@H]2N1CCCC1` (racemic) [Example 19, 1-[(4aRS,8SR,8aRS)-4-butyl-8-(pyrrolidin-1-yl)perhydroquinoxalin-1-yl]-2-(3,4-dichlorophenyl)-ethan-1-one], the affinity at κ receptor, expressed as Ki, was 3.1 ± 1.8 nM. As for `COc1ccc(CN2CCN(C(=O)Cc3ccc(Cl)c(Cl)c3)[C@H]3[C@H]2CCC[C@@H]3N2CCCC2)cc1` (racemic) [Example 20, 2-(3,4-dichlorophenyl)-1-[(4aRS,8SR,8aRS)-4-(4-methoxybenzyl)-8-(pyrrolidin-1-yl)-perhydroquinoxalin-1-yl]ethan-1-one], the Ki (in general, a measure of affinity in units of concentration, obtained from inhibition or displacement) at κ receptor turned out to be 6.8 ± 2 nM. On the same count and under the same terms, the figure for `O=C(Cc1ccc(Cl)c(Cl)c1)N1CCN(Cc2ccccn2)[C@@H]2CCC[C@H](N3CCCC3)[C@H]21` (racemic) [Example 21, 2-(3,4-dichlorophenyl)-1-{(4aRS,8SR,8aRS)-4-[(pyridin-2-yl)methyl]-8-(pyrrolidin-1-yl)perhydroquinoxalin-1-yl}ethan-1-one] is 4.2 ± 2.6 nM; for `O=C(Cc1ccc(Cl)c(Cl)c1)N1CCN(Cc2cccnc2)[C@@H]2CCC[C@H](N3CCCC3)[C@H]21` (racemic) [Example 22, 2-(3,4-dichlorophenyl)-1-{(4aRS,8SR,8aRS)-4-[(pyridin-3-yl)methyl]-8-(pyrrolidin-1-yl)perhydroquinoxalin-1-yl}ethan-1-one] it is 0.13 ± 0.02 nM. For `O=C(Cc1ccc(Cl)c(Cl)c1)N1CCN(Cc2ccccc2)C2CCCC(N3CCC(O)C3)C21` (stereo not drawn) [Example 5, 1-{(4aRS,8SR,8aSR)-4-benzyl-8-[(3SR)- and (3RS)-3-hydroxypyrrolidin-1-yl]perhydroquinoxalin-1-yl}-2-(3,4-dichlorophenyl)ethan-1-one], the Ki on κ receptor (read-out: κ: Ki ± SEM) was 6.6 ± 1.4 nM. Turning to `O=C(c1ccccc1)N1CCN(C(=O)Cc2ccc(Cl)c(Cl)c2)C2C(N3CCC(O)C3)CCCC21` (stereo not drawn) [Example 14, 1-{(4aRS,8SR,8aSR)-4-benzoyl-8-[(3SR)- and (3RS)-3-hydroxypyrrolidin-1-yl]-perhydroquinoxalin-1-yl}-2-(3,4-dichlorophenyl)ethan-1-one], on κ receptor (read-out: κ: Ki ± SEM), the Ki is 22 ± 5.6 nM. As for `COC(=O)N1CCN(C(=O)Cc2ccc(Cl)c(Cl)c2)C2C(N3CCC(O)C3)CCCC21` (stereo not drawn) [Example 15, methyl{(4aRS,8SR,8aRS)-1-[2-(3,4-dichlorophenyl)acetyl]-8-[(3SR)- and (3RS)-3-hydroxypyrrolidin-1-yl]-perhydroquinoxalin-4-yl}carboxylate], the Ki at κ receptor (read-out: κ: Ki ± SEM) amounted to 11 ± 2.8 nM. In the case of `O=C(O)CC(=O)N1CCN(C(=O)Cc2ccc(Cl)c(Cl)c2)C2C(N3CCC(O)C3)CCCC21` (stereo not drawn) [Example 16, 3-{(4aRS,8SR,8aRS)-1-[2-(3,4-dichlorophenyl)acetyl]-8-[(3SR)- and (3RS)-3-hydroxypyrrolidin-1-yl]-perhydroquinoxalin-4-yl}-3-oxopropionic acid], at κ receptor (read-out: κ: Ki ± SEM), the Ki was found to be 482 ± 113 nM. Take `COC(=O)CC(=O)N1CCN(C(=O)Cc2ccc(Cl)c(Cl)c2)C2C(N3CCC(O)C3)CCCC21` (stereo not drawn) [Example 17, methyl 3-{(4aRS,8SR,8aRS)-1-[2-(3,4-dichlorophenyl)acetyl]-8-[(3SR)- and (3RS)-3-hydroxypyrrolidin-1-yl]-perhydroquinoxalin-4-yl}-3-oxopropionate]: the Ki at κ receptor (read-out: κ: Ki ± SEM) is 18 ± 2.2 nM.

Take `O=C(Cc1ccc(Cl)c(Cl)c1)N1CCN(Cc2cccnc2)C2CCCC(N3CCC(O)C3)C21` (stereo not drawn) [Example 25, 2-(3,4-dichlorophenyl)-1-{(4aRS,8SR,8aSR)-4-[(pyridin-3-yl)methyl]-8-[(3SR)- and (3RS)-3-hydroxypyrrolidin-1-yl]perhydroquinoxalin-1-yl}ethan-1-one]: the Ki at κ receptor (read-out: κ: Ki ± SEM) was determined as 3.8 ± 0.7 nM.
